For the assay, the system named is Mycobacterium tuberculosis. Description: Antimycobacterial activity against rifampin,isoniazid-resistant Mycobacterium tuberculosis expressing rpoB/katG mutant after 10 days by microbroth dilution method. In kind it is functional. (In general: Dilution methods test growth across graded concentrations, often in twofold steps.)

Each structure is given as a SMILES string. ≈ marks a conversion by molar mass, not a printed value.

Regarding `c1ccc2c(-c3cncnc3)csc2c1`, the MIC (commonly the lowest concentration found to suppress growth) turned out to be 7.07 µM (≈ 1.5 µg/mL).

As for `Brc1ccc(-c2ncncc2-c2cc3ccccc3s2)s1`, the MIC is 33.49 µM (≈ 12.5 µg/mL).

For `c1csc(-c2ncncc2-c2csc3ccccc23)c1`, the MIC is 42.46 µM (≈ 12.5 µg/mL).

`Brc1ccc(-c2ncncc2-c2csc3ccccc23)s1` had an MIC of 8.3 µM (≈ 3.1 µg/mL). Compared with the last compound, the MIC is about 5.1-fold lower.

`c1csc(-c2ccc(-c3cncnc3)s2)c1` came in with an MIC of 25.58 µM (≈ 6.25 µg/mL).

In the case of `c1ncc(-c2ccsc2)cn1`, the minimal inhibitory concentration (MIC) was 77.06 µM (≈ 12.5 µg/mL).

The compound `c1csc(-c2cncnc2)c1` gave an MIC of 38.53 µM (≈ 6.25 µg/mL).

Regarding `Brc1ccc(-c2ncncc2Br)s1`, the MIC was 9.69 µM (≈ 3.1 µg/mL).

The compound `c1csc(-c2ccc(-c3ncncc3-c3cccs3)s2)c1` came in with a minimum inhibitory concentration (MIC) of 2.14 µM (≈ 0.699 µg/mL).

The compound `c1ccc(-c2ccc(-c3ncncc3-c3cc4ccccc4s3)s2)cc1` returned an MIC of 8.37 µM (≈ 3.1 µg/mL). This MIC is about 3.9-fold higher than that of the compound before.

For `c1ccc(-c2ccc(-c3cncnc3)s2)cc1`, the MIC worked out at 26.23 µM (≈ 6.25 µg/mL).

`c1csc(-c2cncnc2-c2cccs2)c1` gave an MIC of 12.69 µM (≈ 3.1 µg/mL).

On to `Brc1ccc(-c2ncncc2-c2ccsc2)s1`, for which the MIC turned out to be 19.34 µM (≈ 6.25 µg/mL). This MIC lies about 1.5-fold higher than the previous one.

`c1csc(-c2ccc(-c3ncncc3-c3ccsc3)s2)c1` showed an MIC of 19.14 µM (≈ 6.25 µg/mL).

Consider `c1csc(-c2ncncc2-c2ccsc2)c1`, for which the MIC came to 25.58 µM (≈ 6.25 µg/mL). This MIC and that of the compound before are within 1.5-fold of each other.

Consider `Brc1cncnc1`, for which the MIC was found to be 78.62 µM (≈ 12.5 µg/mL). Compared with the last compound, the MIC is about 3.1-fold higher.

The compound `c1csc(-c2ccc(-c3ncncc3-c3csc4ccccc34)s2)c1` displayed an MIC of 0.98 µM (≈ 0.369 µg/mL).

The compound `c1ccc(-c2ccc(-c3ncncc3-c3cccs3)s2)cc1` registered an MIC of 39.01 µM (≈ 12.5 µg/mL).

Take `c1csc(-c2ccc(-c3ncncc3-c3cc4ccccc4s3)s2)c1`: the MIC came out at 33.2 µM (≈ 12.5 µg/mL).

With `Brc1ccc(-c2cncnc2)s1`, the minimum inhibitory concentration (MIC) was 51.84 µM (≈ 12.5 µg/mL).

On to `c1ccc(-c2ccc(-c3ncncc3-c3csc4ccccc34)s2)cc1`, for which the MIC worked out at 0.4 µM (≈ 0.148 µg/mL).

`c1csc(-c2ncncc2-c2cc3ccccc3s2)c1` had an MIC of 21.23 µM (≈ 6.25 µg/mL).

`c1ccc(-c2ccc(-c3ncncc3-c3ccsc3)s2)cc1` returned an MIC of 19.5 µM (≈ 6.25 µg/mL).

Turning to `c1csc(-c2ccc(-c3ccncn3)s2)c1`, the MIC amounted to 51.16 µM (≈ 12.5 µg/mL). This MIC lies about 2.6-fold higher than the previous one.

In the case of `c1ccc2sc(-c3cncnc3)cc2c1`, the MIC stood at 58.89 µM (≈ 12.5 µg/mL).

`Brc1ccc(-c2ncncc2-c2cccs2)s1` returned an MIC of 38.67 µM (≈ 12.5 µg/mL).

Values taken from ChEMBL document CHEMBL3421531, “Synthesis, and structure-activity relationship for C(4) and/or C(5) thienyl substituted pyrimidines, as a new family of antimycobacterial compounds” (Eur J Med Chem, 2015).
